For one test, the system named is E. coli biofilms. Put plainly: Biofilm growth assay (spreading biofilm on semi-solid agar), E. coli. The format is cell-based. To be noted: biofilm growth assay, overnight 37° C., vs negative controls, Tables 1-5; for IC85: Escherichia coli, read-out: E. coli: concentration that reduces the area of the spreading biofilm by greater than or equal to 85%. Summed up:
(§1)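 Values are compound concentrations (μg/ml) that cut the spreading-biofilm zone area by ≥85% relative to negative controls after overnight 37 °C growth from 5 μL central inoculum. E. coli plates: LB, 0.6% agar, 0.5% glucose; P. aeruginosa plates: M8 agar plus 0.2% glucose, 100 μM CaCl2, 1 mM MgSO4, 0.5% Casamino acids.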

The subject of a further test is P. aeruginosa biofilms. Briefly: Biofilm growth assay (spreading biofilm on semi-solid agar), P. aeruginosa. The format is cell-based. To be noted: biofilm growth assay, overnight 37° C., vs negative controls, Tables 1-5; for IC85: Pseudomonas aeruginosa, read-out: P. aeruginosa: concentration that reduces the area of the spreading biofilm by greater than or equal to 85%. In a few lines:
as §1

Molecules are shown by their SMILES. Converted amounts (≈) assume the structure as drawn. Bounds are passed on as bounds.

For the molecule `CC1(C)CC[C@]2(C(=O)O)CC[C@]3(C)C(=C(c4cccc5[nH]ccc45)CC4[C@@]5(C)Cc6c(n[nH]c6N)C(C)(C)C5CC[C@]43C)C2C1` (stereo partly drawn) [Example 48, (4aS,6aS,6bR,13aR)-12-Amino-15-(1H-indol-4-yl)-2,2,6a,6b,9,9,13a-heptamethyl-2,3,4,4a,5,6,6a,6b,7,8,8a,9,11,13,13a,13b,14,15b-octadecahydro-1H-chryseno[1,2-f]indazole-4-a-carboxylic acid], in the test with E. coli biofilms, the “E. coli: concentration that reduces the area of the spreading biofilm by greater than or equal to 85%” value was found to be 1 µg/mL. Further, the “P. aeruginosa: concentration that reduces the area of the spreading biofilm by greater than or equal to 85%” value in the test on P. aeruginosa biofilms was determined as 0.5 µg/mL.
In the same order, the values of `CC1(C)CC[C@]2(C(=O)O)CC[C@]3(C)C(=C(c4ccc5[nH]ccc5c4)CC4[C@@]5(C)Cc6c(n[nH]c6N)C(C)(C)C5CC[C@]43C)C2C1` (stereo partly drawn) [Example 49, (4aS,6aS,6bR,13aR)-12-Amino-15-(1H-indol-5-yl)-2,2,6a,6b,9,9,13a-heptamethyl-2,3,4,4a,5,6,6a,6b,7,8,8a,9,11,13,13a,13b,14,15b-octadecahydro-1H-chryseno[1,2-f]indazole-4-a-carboxylic acid] are above 1 µg/mL and 0.5 µg/mL.
Turning to `CC1(C)CC[C@]2(C(=O)O)CC[C@]3(C)C(=C(c4ccc(N5CCNCC5)cc4)CC4[C@@]5(C)Cc6c(n[nH]c6N)C(C)(C)C5CC[C@]43C)C2C1` (stereo partly drawn) [Example 50, (4aS,6aS,6bR,13aR)-12-Amino-2,2,6a,6b,9,9,13a-heptamethyl-15-(4-(piperazin-1-yl)phenyl)-2,3,4,4a,5,6,6a,6b,7,8,8a,9,11,13,13a,13b,14,15b-octadecahydro-1H-chryseno[1,2-f]indazole-4-a-carboxylic acid], the “E. coli: concentration that reduces the area of the spreading biofilm by greater than or equal to 85%” value with E. coli biofilms stood at 1 µg/mL. The “P. aeruginosa: concentration that reduces the area of the spreading biofilm by greater than or equal to 85%” value with P. aeruginosa biofilms stood at 2 µg/mL.
Turning to `CC1(C)CC[C@]2(C(=O)O)CC[C@]3(C)C(=C(c4ccc(N5CCOCC5)cc4)CC4[C@@]5(C)Cc6c(n[nH]c6N)C(C)(C)C5CC[C@]43C)C2C1` (stereo partly drawn) [Example 51, (4aS,6aS,6bR,13aR)-12-Amino-2,2,6a,6b,9,9,13a-heptamethyl-15-(4-morpholinophenyl)-2,3,4,4a,5,6,6a,6b,7,8,8a,9,11,13,13a,13b,14,15b-octadecahydro-1H-chryseno[1,2-f]indazole-4-a-carboxylic acid], the “E. coli: concentration that reduces the area of the spreading biofilm by greater than or equal to 85%” value in the test with E. coli biofilms was 2 µg/mL. Further, the “P. aeruginosa: concentration that reduces the area of the spreading biofilm by greater than or equal to 85%” value in the test with P. aeruginosa biofilms worked out at 0.5 µg/mL.
The matching figures for `CC1(C)CC[C@]2(C(=O)O)CC[C@]3(C)C(=C(c4ccc(CN5CCOCC5)cc4)CC4[C@@]5(C)Cc6c(n[nH]c6N)C(C)(C)C5CC[C@]43C)C2C1` (stereo partly drawn) [Example 52, (4aS,6aS,6bR,13aR)-12-Amino-2,2,6a,6b,9,9,13a-heptamethyl-15-(4-(morpholinomethyl)phenyl)-2,3,4,4a,5,6,6a,6b,7,8,8a,9,11,13,13a,13b,14,15b-octadecahydro-1H-chryseno[1,2-f]indazole-4-a-carboxylic acid]: 2 µg/mL and 1 µg/mL.
For the molecule `CN1CCN(c2ccc(C3=C4C5CC(C)(C)CC[C@]5(C(=O)O)CC[C@@]4(C)[C@]4(C)CCC5C(C)(C)c6n[nH]c(N)c6C[C@]5(C)C4C3)cc2)CC1` (stereo partly drawn) [Example 53, (4aS,6aS,6bR,13aR)-12-Amino-2,2,6a,6b,9,9,13a-heptamethyl-15-(4-(4-methylpiperazin-1-yl)phenyl)-2,3,4,4a,5,6,6a,6b,7,8,8a,9,11,13,13a,13b,14,15b-octadecahydro-1H-chryseno[1,2-f]indazole-4-a-carboxylic acid], in the test on E. coli biofilms, the “E. coli: concentration that reduces the area of the spreading biofilm by greater than or equal to 85%” value was 2 µg/mL. Moreover, in the test with P. aeruginosa biofilms, the “P. aeruginosa: concentration that reduces the area of the spreading biofilm by greater than or equal to 85%” value came to 0.5 µg/mL.
As to `CC1(C)CC[C@]2(C(=O)O)CC[C@]3(C)C(=C(c4ccc(N5CCOCC5)nc4)CC4[C@@]5(C)Cc6c(n[nH]c6N)C(C)(C)[C@@H]5CC[C@]43C)[C@@H]2C1` (stereo partly drawn) [Example 54, (4aS,6aS,6bR,8aR,13aR,15bS)-12-Amino-2,2,6a,6b,9,9,13a-heptamethyl-15-(6-morpholinopyridin-3-yl)-2,3,4,4a,5,6,6a,6b,7,8,8a,9,11,13,13a,13b,14,15b-octadecahydro-1H-chryseno[1,2-f]indazole-4-a-carboxylic acid], the “E. coli: concentration that reduces the area of the spreading biofilm by greater than or equal to 85%” value in the test with E. coli biofilms is 2 µg/mL. Besides, the “P. aeruginosa: concentration that reduces the area of the spreading biofilm by greater than or equal to 85%” value with P. aeruginosa biofilms was found to be 1 µg/mL.
For the molecule `CC1(C)CC[C@]2(C(=O)O)CC[C@]3(C)C(=C(c4ccc(N5CCNCC5)nc4)CC4[C@@]5(C)Cc6c(n[nH]c6N)C(C)(C)C5CC[C@]43C)C2C1` (stereo partly drawn) [Example 55, (4aS,6aS,6bR,13aR)-12-Amino-2,2,6a,6b,9,9,13a-heptamethyl-15-(6-(piperazin-1-yl)pyridin-3-yl)-2,3,4,4a,5,6,6a,6b,7,8,8a,9,11,13,13a,13b,14,15b-octadecahydro-1H-chryseno[1,2-f]indazole-4-a-carboxylic acid], the “E. coli: concentration that reduces the area of the spreading biofilm by greater than or equal to 85%” value with E. coli biofilms was determined as 2 µg/mL. The “P. aeruginosa: concentration that reduces the area of the spreading biofilm by greater than or equal to 85%” value in the test with P. aeruginosa biofilms is above 1 µg/mL.
`CN1CCN(c2ccc(C3=C4C5CC(C)(C)CC[C@]5(C(=O)O)CC[C@@]4(C)[C@]4(C)CCC5C(C)(C)c6n[nH]c(N)c6C[C@]5(C)C4C3)cn2)CC1` (stereo partly drawn) [Example 56, (4aS,6aS,6bR,13aR)-12-Amino-2,2,6a,6b,9,9,13a-heptamethyl-15-(6-(4-methylpiperazin-1-yl)pyridin-3-yl)-2,3,4,4a,5,6,6a,6b,7,8,8a,9,11,13,13a,13b,14,15b-octadecahydro-1H-chryseno[1,2-f]indazole-4-a-carboxylic acid]: the “E. coli: concentration that reduces the area of the spreading biofilm by greater than or equal to 85%” value with E. coli biofilms worked out at 2 µg/mL. The “P. aeruginosa: concentration that reduces the area of the spreading biofilm by greater than or equal to 85%” value in the test on P. aeruginosa biofilms turned out to be 1 µg/mL.
The matching figures for `CC1(C)CC[C@]2(C(=O)O)CC[C@]3(C)C(=C(c4ccc(N5CCC(N)CC5)nc4)CC4[C@@]5(C)Cc6c(n[nH]c6N)C(C)(C)C5CC[C@]43C)C2C1` (stereo partly drawn) [Example 57, (4aS,6aS,6bR,13aR)-12-Amino-15-(6-(4-aminopiperidin-1-yl)pyridin-3-yl)-2,2,6a,6b,9,9,13a-heptamethyl-2,3,4,4a,5,6,6a,6b,7,8,8a,9,11,13,13a,13b,14,15b-octadecahydro-1H-chryseno[1,2-f]indazole-4-a-carboxylic acid]: 1 µg/mL and above 2 µg/mL.
As for `CC1(C)CC[C@]2(C(=O)O)CC[C@]3(C)C(=C(c4ccc(N5CCC(N)C5)nc4)CC4[C@@]5(C)Cc6c(n[nH]c6N)C(C)(C)C5CC[C@]43C)C2C1` (stereo partly drawn) [Example 58, (4a-8,6a8,6bR,13aR)-12-Amino-15-(6-(3-aminopyrrolidin-1-yl)pyridin-3-yl)-2,2,6a,6b,9,9,13a-heptamethyl-2,3,4,4a,5,6,6a,6b,7,8,8a,9,11,13,13a,13b,14,15b-octadecahydro-1H-chryseno[1,2-f]indazole-4-a-carboxylic acid], the “E. coli: concentration that reduces the area of the spreading biofilm by greater than or equal to 85%” value in the test with E. coli biofilms was 2 µg/mL. Also, the “P. aeruginosa: concentration that reduces the area of the spreading biofilm by greater than or equal to 85%” value with P. aeruginosa biofilms came to 1 µg/mL.
For the molecule `CC1(C)CC[C@]2(C(=O)O)CC[C@]3(C)C(=C(c4ccccc4CN4CCOCC4)CC4[C@@]5(C)Cc6c(n[nH]c6N)C(C)(C)[C@@H]5CC[C@]43C)[C@@H]2C1` (stereo partly drawn) [Example 59, (4aS,6aS,6bR,8aR,13aR,15bS)-12-Amino-2,2,6a,6b,9,9,13a-heptamethyl-15-(2-(morpholinomethyl)phenyl)-2,3,4,4a,5,6,6a,6b,7,8,8a,9,11,13,13a,13b,14,15b-octadecahydro-1H-chryseno[1,2-f]indazole-4-a-carboxylic acid], in the test on E. coli biofilms, the “E. coli: concentration that reduces the area of the spreading biofilm by greater than or equal to 85%” value is above 1 µg/mL. In the test with P. aeruginosa biofilms, the “P. aeruginosa: concentration that reduces the area of the spreading biofilm by greater than or equal to 85%” value was 0.5 µg/mL.
For `CC1(C)CC[C@]2(C(=O)O)CC[C@]3(C)C(=CCC4[C@@]5(C)CC6=NCN=C6C(C)(C)C5CC[C@]43C)C2C1` (some centres unmarked) [F], the IC85 in the test on E. coli biofilms is above 8 µg/mL; with P. aeruginosa biofilms, 4 µg/mL (≈ 8.36 µM).
Regarding `CC1(C)CC[C@]2(C(=O)O)CC[C@]3(C)C(=CCC4[C@@]5(C)Cc6c(n[nH]c6CO)C(C)(C)C5CC[C@]43C)C2C1` (some centres unmarked) [G], the IC85 with E. coli biofilms and in the test on P. aeruginosa biofilms was above 8 µg/mL in each case.
As to `CC1(C)CC[C@]2(C(=O)O)CC[C@]3(C)C(=CCC4[C@@]5(C)Cc6c(n[nH]c6Br)C(C)(C)C5CC[C@]43C)C2C1` (some centres unmarked) [H], the values for the IC85 in the test with E. coli biofilms and with P. aeruginosa biofilms were above 8 µg/mL and 8 µg/mL (≈ 14.3 µM), respectively.
For `CNc1[nH]nc2c1C[C@@]1(C)C(CC[C@]3(C)C1CC=C1C4CC(C)(C)CC[C@]4(C(=O)O)CC[C@]13C)C2(C)C` (some centres unmarked) [I], the IC85 in the test with E. coli biofilms was 8 µg/mL (≈ 15.8 µM); with P. aeruginosa biofilms, above 16 µg/mL.
Turning to `CN(C)c1[nH]nc2c1C[C@@]1(C)C(CC[C@]3(C)C1CC=C1C4CC(C)(C)CC[C@]4(C(=O)O)CC[C@]13C)C2(C)C` (some centres unmarked) [J], the IC85 with E. coli biofilms and in the test with P. aeruginosa biofilms was above 16 µg/mL throughout.
For `CC1(C)CC[C@]2(C(=O)O)CC[C@]3(C)C(=CC[C@@H]4[C@@]5(C)Cc6c(noc6N)C(C)(C)[C@@H]5CC[C@]43C)[C@@H]2C1` [K], the IC85 with E. coli biofilms and with P. aeruginosa biofilms was above 8 µg/mL throughout.
In the case of `CC1(C)CC[C@]2(C(=O)O)CC[C@]3(C)[C@H](C(=O)C=C4[C@@]5(C)C=C(C#N)C(=O)C(C)(C)[C@@H]5CC[C@]43C)[C@@H]2C1` [L], the IC85 with E. coli biofilms and in the test with P. aeruginosa biofilms was above 16 µg/mL each time.

Source of the values: patent publication US8324264B1, “Inhibitors of bacterial biofilms and related methods” (Sequoia Sciences, Inc., priority 2011, dated 2012).
